Test system: RA patients
Assay: [HDL] determination, Study 1 (RA patients, add-on to MTX)
Type: in vivo, human
Procedure: Double-blind, placebo-controlled add on study in subjects with moderately to severely active RA who have an inadequate response to methotrexate (MTX) (oral or parenteral).
595 subjects randomized to one of 6 dose regimens of Compound 1 (dosed as a [Compound 1:HCl:3H2O]) (3 dose levels administered either once or twice daily) or placebo on top of each subject's stable dose of MTX.
Compound 1 (dosed as a [Compound 1:HCl:3H2O]) is dosed for twelve weeks once daily (q.d.) (50 mg, 100 mg or 200 mg) or twice daily (b.i.d.) (25 mg, 50 mg or 100 mg); or placebo.
At Week 12, the subjects on placebo who have not achieved 20% improvement in swollen joint count (SJC66) and tender joint count (TJC68) are re-randomized automatically to receive Compound 1 (dosed as a [Compound 1:HCl:3H2O]) either at 100 mg q.d. or 50 mg b.i.d. doses in a blinded fashion; subjects on 50 mg q.d. who have not achieved 20% improvement in SJC66 and TJC68 will be assigned to 100 mg q.d. and subjects on 25 mg b.i.d. that have not achieved a 20% improvement in SJC66 and TJC68 will be assigned to 50 mg b.i.d. Subjects who switch treatment at week 12 are handled as if they discontinued at week 12 for the purpose of statistical analysis, whereas subjects in the other groups will maintain their randomized treatment until Week 24.
This assay relies on a homogeneous enzymatic colorimetric test. In the presence of magnesium ions, dextran sulfate selectively forms water-soluble complexes with LDL, VLDL and chylomicrons which are resistant to PEG-modified enzymes.
The cholesterol concentration of [HDL]-cholesterol is determined enzymatically by cholesterol esterase and cholesterol oxidase coupled with PEG to the amino groups (approx. 40%).
In the presence of peroxidase, the hydrogen peroxide generated reacts with 4-amino-antipyrine and Sodium N-(2-hydroxy-3-sulfopropyl)-3,5-dimethoxyaniline (HSDA) to form a purple-blue dye. The color intensity of this dye is directly proportional to the cholesterol concentration and is measured photometrically.
Human serum and plasma samples [HDL] determination was done on a Roche/Hitachi Cobas c 701/702 system which automatically calculate the analyte concentration of each sample. Samples containing precipitates are centrifuged before performing the assay.

[1] = continued 50 mg q.d. (N = 63), week 4
[2] = continued 50 mg q.d. (N = 63), week 8
[3] = continued 50 mg q.d. (N = 63), week 12
[4] = continued 50 mg q.d. (N = 63), week 16
[5] = continued 50 mg q.d. (N = 63), week 20
[6] = continued 50 mg q.d. (N = 63), week 24
[7] = continued 100 mg b.i.d. (N = 84), week 1
[8] = continued 100 mg b.i.d. (N = 84), week 2
[9] = continued 100 mg b.i.d. (N = 84), week 4
[10] = continued 100 mg b.i.d. (N = 84), week 8
[11] = continued 100 mg b.i.d. (N = 84), week 12
[12] = continued 100 mg b.i.d. (N = 84), week 16
[13] = continued 100 mg b.i.d. (N = 84), week 20
[14] = continued 100 mg b.i.d. (N = 84), week 24
[15] = continued 100 mg q.d. (N = 85), week 1
[16] = continued 100 mg q.d. (N = 85), week 2
[17] = continued 100 mg q.d. (N = 85), week 4
[18] = continued 100 mg q.d. (N = 85), week 8
[19] = continued 100 mg q.d. (N = 85), week 12
[20] = continued 100 mg q.d. (N = 85), week 16
[21] = continued 100 mg q.d. (N = 85), week 20
[22] = continued 100 mg q.d. (N = 85), week 24
[23] = continued 200 mg q.d. (N = 86), week 1
[24] = continued 200 mg q.d. (N = 86), week 2

## O=C(Nc1nc2cccc(-c3ccc(CN4CCS(=O)(=O)CC4)cc3)n2n1)C1CC1 [Compound 1, cyclopropanecarboxylic acid {5-[4-(1,1-dioxo-thiomorpholin-4-ylmethyl)-phenyl]-[1,2,4]triazolo[1,5-a]pyridin-2yl}-amide]
[1]
  [HDL] Mean percentage CFB - 24 weeks results: 4.87%
  [HDL] Median CFB - 24 weeks results: 0.05 mmol/L
[2]
  [HDL] Mean CFB - 24 weeks results: 0.06 mmol/L
  [HDL] Mean percentage CFB - 24 weeks results: 5.57%
  [HDL] Median CFB - 24 weeks results: 0.10 mmol/L
[3]
  [HDL] Mean CFB - 24 weeks results: 0.08 mmol/L
  [HDL] Mean percentage CFB - 24 weeks results: 7.86%
  [HDL] Median CFB - 24 weeks results: 0.06 mmol/L
[4]
  [HDL] Mean CFB - 24 weeks results: 0.08 mmol/L
  [HDL] Mean percentage CFB - 24 weeks results: 6.63%
  [HDL] Median CFB - 24 weeks results: 0.10 mmol/L
[5]
  [HDL] Mean CFB - 24 weeks results: 0.10 mmol/L
  [HDL] Mean percentage CFB - 24 weeks results: 8.81%
  [HDL] Median CFB - 24 weeks results: 0.10 mmol/L
[6]
  [HDL] Mean CFB - 24 weeks results: 0.17 mmol/L
  [HDL] Mean percentage CFB - 24 weeks results: 14.22%
  [HDL] Median CFB - 24 weeks results: 0.15 mmol/L
[7]
  [HDL] Mean CFB - 24 weeks results: 0.12 mmol/L
  [HDL] Mean percentage CFB - 24 weeks results: 9.40%
  [HDL] Median CFB - 24 weeks results: 0.10 mmol/L
[8]
  [HDL] Mean CFB - 24 weeks results: 0.20 mmol/L
  [HDL] Mean percentage CFB - 24 weeks results: 15.20%
  [HDL] Median CFB - 24 weeks results: 0.18 mmol/L
[9]
  [HDL] Mean CFB - 24 weeks results: 0.25 mmol/L
  [HDL] Mean percentage CFB - 24 weeks results: 19.54%
  [HDL] Median CFB - 24 weeks results: 0.25 mmol/L
[10]
  [HDL] Mean CFB - 24 weeks results: 0.26 mmol/L
  [HDL] Mean percentage CFB - 24 weeks results: 21.15%
  [HDL] Median CFB - 24 weeks results: 0.25 mmol/L
[11]
  [HDL] Mean CFB - 24 weeks results: 0.30 mmol/L
  [HDL] Mean percentage CFB - 24 weeks results: 23.14%
  [HDL] Median CFB - 24 weeks results: 0.25 mmol/L
[12]
  [HDL] Mean CFB - 24 weeks results: 0.27 mmol/L
  [HDL] Mean percentage CFB - 24 weeks results: 21.09%
  [HDL] Median CFB - 24 weeks results: 0.28 mmol/L
[13]
  [HDL] Mean CFB - 24 weeks results: 0.28 mmol/L
  [HDL] Mean percentage CFB - 24 weeks results: 21.88%
  [HDL] Median CFB - 24 weeks results: 0.29 mmol/L
[14]
  [HDL] Mean CFB - 24 weeks results: 0.29 mmol/L
  [HDL] Mean percentage CFB - 24 weeks results: 22.68%
  [HDL] Median CFB - 24 weeks results: 0.30 mmol/L
[15]
  [HDL] Mean CFB - 24 weeks results: 0.05 mmol/L
  [HDL] Mean percentage CFB - 24 weeks results: 5.43%
  [HDL] Median CFB - 24 weeks results: 0.06 mmol/L
[16]
  [HDL] Mean CFB - 24 weeks results: 0.07 mmol/L
  [HDL] Mean percentage CFB - 24 weeks results: 7.02%
  [HDL] Median CFB - 24 weeks results: 0.07 mmol/L
[17]
  [HDL] Mean CFB - 24 weeks results: 0.11 mmol/L
  [HDL] Mean percentage CFB - 24 weeks results: 9.40%
  [HDL] Median CFB - 24 weeks results: 0.13 mmol/L
[18]
  [HDL] Mean CFB - 24 weeks results: 0.09 mmol/L
  [HDL] Mean percentage CFB - 24 weeks results: 8.18%
  [HDL] Median CFB - 24 weeks results: 0.11 mmol/L
[19]
  [HDL] Mean CFB - 24 weeks results: 0.10 mmol/L
  [HDL] Mean percentage CFB - 24 weeks results: 8.49%
  [HDL] Median CFB - 24 weeks results: 0.10 mmol/L
[20]
  [HDL] Mean CFB - 24 weeks results: 0.09 mmol/L
  [HDL] Mean percentage CFB - 24 weeks results: 7.94%
  [HDL] Median CFB - 24 weeks results: 0.10 mmol/L
[21]
  [HDL] Mean CFB - 24 weeks results: 0.15 mmol/L
  [HDL] Mean percentage CFB - 24 weeks results: 12.24%
  [HDL] Median CFB - 24 weeks results: 0.14 mmol/L
[22]
  [HDL] Mean CFB - 24 weeks results: 0.15 mmol/L
  [HDL] Mean percentage CFB - 24 weeks results: 12.17%
  [HDL] Median CFB - 24 weeks results: 0.15 mmol/L
[23]
  [HDL] Mean CFB - 24 weeks results: 0.11 mmol/L
  [HDL] Mean percentage CFB - 24 weeks results: 9.42%
  [HDL] Median CFB - 24 weeks results: 0.13 mmol/L
[24]
  [HDL] Mean CFB - 24 weeks results: 0.20 mmol/L
  [HDL] Mean percentage CFB - 24 weeks results: 16.66%
  [HDL] Median CFB - 24 weeks results: 0.20 mmol/L
Continued 200 mg q.d. (N = 86), week 4
  [HDL] Mean CFB - 24 weeks results: 0.24 mmol/L
